# Measured values published in patent publication US9828373B2, “2-amino-pyrido[2,3-D]pyrimidin-7(8H)-one derivatives as CDK inhibitors and uses thereof” (SUNSHINE LAKE PHARMA CO., LTD., priority 2014, dated 2017).
# Where two headings read alike, the source gives them in different places.
# Legend:
# [1] = target: CDK4/CycD3 (Homo sapiens, UniProt P11802); assay: Enzymatic inhibitory activity in vitro, CDK4 (Caliper mobility shift, FAM-labeled peptide); assay type: biochemical
# From the text: (§1) The materials are used in the following assay:
# (§2) HEPES: 4-(2-Hydroxyethyl)piperazine-1-ethanesulfonic acid; Brij-35: Polyethylene Glycol Monoisotridecyl Ether; DTT: Dithiothreitol; EDTA: Ethylene Diamine Tetraacetic Acid; CDK4/CycD3: Cyclin dependent kinase 4; CDK6/CycD3: Cyclin dependent kinase 6; Peptide FAM-P22: fluorescein-labeled peptide 22; ATP: adenosine triphosphate; DMSO: dimethyl sulfoxide; Staurosporine; Coating Reagent #3;
# (§3) 1. Preparation of 1× Kinase Base Buffer and Stop Buffer:
# (§4) (1) 1× Kinase buffer without MnCl2 (50 mM HEPES, pH 7.5, 0.0015% Brij-35, 10 mM MgCl2, 2 mM DTT); (2) Stop buffer (100 mM HEPES, pH 7.5, 0.015% Brij-35, 0.2% Coating Reagent #3, 50 mM EDTA).
# (§5) (1) The compound was diluted to 50× of the final desired highest inhibitor concentration in reaction by 100% DMSO. Transferring 100 μL of this compound dilution to a well in a 96-well plate. (2) The compound was diluted by transferring 20 μL of the compound dilution to 60 μL of 100% DMSO in the next well and so forth for a total of 10 concentrations. (3) 100 μL of 100% DMSO was added to two empty wells for no compound control and no enzyme control. (4) Intermediate plate was prepared by transferring 10 μL of compound from source plate to a new 96-well plate and adding 90 μL of 1× kinase buffer to each well of the intermediate plate. The compounds in intermediate plate were mixed for 10 min on shaker. (5) Assay plate was prepared by transferring 5 μL of each well from the 96-well intermediate plate to a 384-well plate in duplicates.
# (§6) (1) 2.5× Enzyme solution was prepared by adding kinase in 1× kinase base buffer. (2) 2.5× Peptide solution was prepared by adding FAM-labeled peptide and ATP in the 1× kinase base buffer. (3) 2.5× Enzyme solution was transferred to the assay plate contained 5 μL of compound in 10% DMSO, which was incubated at room temperature for 10 min. (4) 10 μL of 2.5× […] solution was added to each well of the 384-well assay plate. (5) Kinase reaction and stopping, after incubating at 28° C. for specified period of time, 25 μL of stop buffer was added to stop reaction.
# (§7) 4. Caliper Reading, Collect Data on Caliper.
# (§8) (1) Copying conversion data from Caliper program; (2) Converting conversion values to inhibition values: Percent inhibition=(max−conversion)/(max−min)*100; “max” means the value of control without compound; “min” means the value of control without enzyme; (3) Fitting the data in XLfit to obtain IC50 values.
# [2] = target: CDK6/CycD3 (Homo sapiens, UniProt Q00534); assay: Enzymatic inhibitory activity in vitro, CDK6 (Caliper mobility shift, FAM-labeled peptide); assay type: biochemical
# From the text: as §1, §2, §3, §4, §5, §6, §7, §8
# [3] = Pharmacokinetics in rats (iv and oral, plasma LC-MS/MS); assay type: in vivo, male SD rats; conditions: rat
# From the text: The assay agents and samples are as shown below:
# Propranolol: Propranolol (internal standard); MTBE: Methyl Tertiary Butyl Ether; Cremophor EL: polyoxyethylated castor oil; KolliphorHS 15: polyethylene glycol 12-hydroxystearate; DMSO: dimethylsulfoxide; PEG400: polyethylene glycol 400; 18 male SD rats.
# Each test compound prepared was completely dissolved in a mixture of 5% DMSO+10% KolliphorHS 15+35% Saline or 5% DMSO+60% PEG400+35% Saline according solubility property thereof.
# Grouping male SD rats weighing 190-250 g randomly to two groups; one group was administered with test compound at a dose of 1.0 mg/kg by intravenous injection, the other group was administered with test compound at a dose of 5.0 mg/kg by oral. After administering, blood samples of intravenous injection group were collected at time points of 0.0833, 0.25, 0.5, 1, 2, 5, 7 and 24 h from caudal vein; blood samples of oral group were collected at time points of 0.25, 0.5, 1, 2, 5, 7 and 24 h from caudal vein. Standard curve was plotted based on concentrations of the samples in a suitable range, the concentrations of test compounds in plasma samples were determined by using LC-MS/MS. Pharmacokinetic parameters were calculated according to drug concentration-time curve using a noncompartmental method by WinNonLin 6.3 software.
# Chain of CDK4/CycD3 (P11802 whole entry, species assumed): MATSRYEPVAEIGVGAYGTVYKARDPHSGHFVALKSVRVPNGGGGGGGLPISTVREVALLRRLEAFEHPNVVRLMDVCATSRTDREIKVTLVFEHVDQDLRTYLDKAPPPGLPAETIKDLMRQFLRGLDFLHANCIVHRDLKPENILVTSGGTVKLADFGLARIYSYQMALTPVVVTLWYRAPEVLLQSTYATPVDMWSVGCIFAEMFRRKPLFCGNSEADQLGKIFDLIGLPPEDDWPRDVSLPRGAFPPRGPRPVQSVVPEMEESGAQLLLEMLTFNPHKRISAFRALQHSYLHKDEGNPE
# Chain of CDK4/CycD3 (P30281 whole entry partner, species assumed): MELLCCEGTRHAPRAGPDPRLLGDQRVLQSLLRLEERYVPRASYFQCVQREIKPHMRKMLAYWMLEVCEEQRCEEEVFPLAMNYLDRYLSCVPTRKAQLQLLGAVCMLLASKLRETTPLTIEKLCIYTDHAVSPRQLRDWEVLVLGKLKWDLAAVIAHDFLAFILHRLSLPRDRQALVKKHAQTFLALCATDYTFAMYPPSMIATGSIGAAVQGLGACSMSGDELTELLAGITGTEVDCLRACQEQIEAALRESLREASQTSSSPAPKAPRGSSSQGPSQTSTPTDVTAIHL
# Chain of CDK6/CycD3 (Q00534 whole entry, species assumed): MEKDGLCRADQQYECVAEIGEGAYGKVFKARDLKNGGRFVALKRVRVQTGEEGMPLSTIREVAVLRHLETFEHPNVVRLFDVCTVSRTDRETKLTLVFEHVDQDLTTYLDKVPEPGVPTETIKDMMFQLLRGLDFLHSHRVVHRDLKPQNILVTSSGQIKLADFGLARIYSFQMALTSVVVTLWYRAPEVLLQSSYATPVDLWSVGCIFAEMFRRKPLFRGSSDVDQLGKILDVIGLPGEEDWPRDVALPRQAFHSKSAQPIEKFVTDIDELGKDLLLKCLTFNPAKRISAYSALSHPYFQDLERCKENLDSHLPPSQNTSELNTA
# Chain of CDK6/CycD3 (P30281 whole entry partner, species assumed): as the sequence (P30281 whole entry partner, species assumed) above
structure (smiles),measurement,setting,value
"CC(=O)c1c(C)c2cnc(Nc3ccc4c(n3)CCN(C(=O)CO)C4)nc2n(C2CCCC2)c1=O [Example 4, 6-Acetyl-8-cyclopentyl-2-((6-(2-hydroxyacetyl)-5,6,7,8-tetrahydro-1,6-naphthyridin-2-yl)amino)-5-methylpyrido[2,3-d]pyrimidin-7(8H)-one]",IC50,[1],17 nM
same,IC50,[2],62 nM
"CC(=O)c1c(C)c2cnc(Nc3ccc4c(n3)CCN(CCC(F)(F)F)C4)nc2n(C2CCCC2)c1=O [Example 5, 6-Acetyl-8-cyclopentyl-5-methyl-2-((6-(3,3,3-trifluoropropyl)-5,6,7,8-tetrahydro-1,6-naphthyridin-2-yl)amino)pyrido[2,3-d]pyrimidin-7(8H)-one]",IC50,[1],25 nM
same,IC50,[2],1060 nM
CC(=O)c1c(C)c2cnc(Nc3ccc4c(n3)CCN(C3CCNCC3)C4)nc2n(C2CCCC2)c1=O [Example 39],IC50,[1],14 nM
same,IC50,[2],51 nM
"CC(=O)c1c(C)c2cnc(Nc3ccc4c(n3)CCN(C(C)=O)C4)nc2n(C2CCCC2)c1=O [Example 6, 6-Acetyl-2-((6-acetyl-5,6,7,8-tetrahydro-1,6-naphthyridin-2-yl)amino)-8-cyclopentyl-5-methylpyrido[2,3-d]pyrimidin-7(8H)-one]",IC50,[1],20 nM
same,IC50,[2],65 nM
"CC(=O)c1c(C)c2cnc(Nc3ncnc4c(C5=CCNCC5)csc34)nc2n(C2CCCC2)c1=O [Example 2, 6-Acetyl-8-cyclopentyl-5-methyl-2-((7-(1,2,3,6-tetrahydropyridin-4-yl)thieno[3,2-d]pyrimidin-4-yl)amino)pyrido[2,3-d]pyrimidin-7(8H)-one]",IC50,[1],2390 nM
same,IC50,[2],4810 nM
"CC(=O)c1c(C)c2cnc(Nc3ccc4c(n3)CCNC4)nc2n(C2CCCC2)c1=O [Example 3, 6-Acetyl-8-cyclopentyl-5-methyl-2-((5,6,7,8-tetrahydro-1,6-naphthyridin-2-yl)amino)pyrido[2,3-d]pyrimidin-7(8H)-one]",IC50,[1],5.7 nM
same,IC50,[2],47 nM
same,bioavailability,"[3]; male, SD, in vivo",101%
same,AUC(0-inf),"[3]; male, SD, in vivo, iv, 1 mg/kg",587 ng·h/mL
same,AUC(0-t),"[3]; male, SD, in vivo, iv, 1 mg/kg",485 ng·h/mL
same,Cmax,"[3]; male, SD, in vivo, iv, 1 mg/kg",141 ng/mL
same,Tmax,"[3]; male, SD, in vivo, iv, 1 mg/kg",0.42 h
same,half-life,"[3]; male, SD, in vivo, iv, 1 mg/kg",2.93 h
same,AUC(0-inf),"[3]; male, SD, in vivo, po, 5 mg/kg",2970 ng·h/mL
same,AUC(0-t),"[3]; male, SD, in vivo, po, 5 mg/kg",2930 ng·h/mL
same,Cmax,"[3]; male, SD, in vivo, po, 5 mg/kg",293 ng/mL
same,Tmax,"[3]; male, SD, in vivo, po, 5 mg/kg",4 h
same,half-life,"[3]; male, SD, in vivo, po, 5 mg/kg",3.91 h
"CC(=O)c1c(C)c2cnc(Nc3ccc4c(ccn4C4CCNCC4)c3)nc2n(C2CCCC2)c1=O [Example 1, 6-Acetyl-8-cyclopentyl-5-methyl-2-((1-(piperidin-4-yl)-1H-indol-5-yl)amino)pyrido[2,3-d]pyrimidin-7(8H)-one]",IC50,[1],6.8 nM
same,IC50,[2],29.2 nM
"CC(=O)c1c(C)c2cnc(Nc3ccc4c(n3)CCN(C3COC3)C4)nc2n(C2CCCC2)c1=O [Example 41, 6-Acetyl-8-cyclopentyl-5-methyl-2-((6-(oxetan-3-yl)-5,6,7,8-tetrahydro-1,6-naphthyridin-2-yl)amino)pyrido[2,3-d]pyrimidin-7(8H)-one]",IC50,[1],18 nM
same,IC50,[2],59 nM
"CC(=O)c1c(C)c2cnc(Nc3ccc4c(n3)CCN(C3CCN(C)CC3)C4)nc2n(C2CCCC2)c1=O [Example 40, 6-Acetyl-8-cyclopentyl-5-methyl-2-((6-(1-methylpiperidin-4-yl)-5,6,7,8-tetrahydro-1,6-naphthyridin-2-yl)amino)pyrido[2,3-d]pyrimidin-7(8H)-one]",IC50,[1],7.2 nM
same,IC50,[2],25 nM
"CCN1CCc2nc(Nc3ncc4c(C)c(C(C)=O)c(=O)n(C5CCCC5)c4n3)ccc2C1 [Example 7, 6-Acetyl-2-((6-ethyl-5,6,7,8-tetrahydro-1,6-naphthyridin-2-yl)amino)-8-cyclopentyl-5-methylpyrido[2,3-d]pyrimidin-7(8H)-one]",IC50,[1],19 nM
same,IC50,[2],83 nM
"CC(=O)c1c(C)c2cnc(Nc3ccc(N4CCNCC4)cn3)nc2n(C2CCCC2)c1=O [Palbociclib, reference compound]",AUC(0-inf),"[3]; plasma, male SD rats, iv, 1.0 mg/kg, read-out: AUCINF",332 ng·h/mL
same,AUC(0-t),"[3]; plasma, male SD rats, iv, 1.0 mg/kg, read-out: AUClast",294 ng·h/mL
same,Cmax,"[3]; plasma, male SD rats, iv, 1.0 mg/kg, read-out: Cmax",143 ng/mL
same,half-life,"[3]; plasma, male SD rats, iv, 1.0 mg/kg, read-out: T1/2 (converted)",2.72 h
same,Tmax,"[3]; plasma, male SD rats, iv, 1.0 mg/kg, read-out: Tmax",0.083 h
same,bioavailability,"[3]; plasma, male SD rats, po 5.0 mg/kg versus iv 1.0 mg/kg, read-out: F (%)",79.9%
same,AUC(0-inf),"[3]; plasma, male SD rats, po, 5.0 mg/kg, read-out: AUCINF",1400 ng·h/mL
same,AUC(0-t),"[3]; plasma, male SD rats, po, 5.0 mg/kg, read-out: AUClast",1280 ng·h/mL
same,Cmax,"[3]; plasma, male SD rats, po, 5.0 mg/kg, read-out: Cmax",156 ng/mL
same,half-life,"[3]; plasma, male SD rats, po, 5.0 mg/kg, read-out: T1/2 (converted)",4.28 h
same,Tmax,"[3]; plasma, male SD rats, po, 5.0 mg/kg, read-out: Tmax",2.67 h
